# Test system: human hair follicle dermal papilla cells (hFDPC)
# Assay: Human follicle dermal papilla cell (hFDPC) proliferation, cell viability assay
# Type: cell-based
# Conditions: hFDPCs supplemented with BIO, BMP-2 and FGFβ
# Experimental: The ability of a compound or salt of the present disclosure to increase proliferation of human hair follicle dermal papilla cells (hFDPC) was tested using a cell viability assay, such as the Promega CellTiter-Glo® Luminescent Cell Viability Assay, MTT cell proliferation assay (ATCC® 30-1010K) or cell counting. […] In Table 8, A represents less than 20% of increased proliferation of hFDPCs, B represents 20-40%, and C represents larger than 40% of increased proliferation of hFDPCs. For this assay, hFDPCs were cultured on tissue culture-treated plastic and supplemented with 6-bromoindirubin-39-Oxime (BIO), recombinant bone morphogenetic protein-2 (BMP-2), and basic fibroblast growth factor (FGFβ), whose combination was previously found to preserve in situ dermal papilla gene signatures.
row,SMILES,Percent Increase Proliferation of hFDPCs (%)
1,"COc1cc(/C=C2\C(=O)NC(=O)N(Cc3ccccc3)C2=O)cc(OC)c1O [Compound I-5, 2,4,6(1H,3H,5H)-Pyrimidinetrione, 5-[(4-hydroxy-3,5-dimethoxyphenyl)methylene]-1-(phenylmethyl)-]",B (B represents 20-40%)
2,"CN1C(=O)NC(=O)/C(=C/c2cnc(N(C)C)nc2)C1=O [Compound I-13, 2,4,6(1H,3H,5H)-Pyrimidinetrione, 5-[[2-(dimethylamino)-5-pyrimidinyl]methylene]-1-methyl-]",A (A represents less than 20% of increased proliferation of hFDPCs)
3,"C=CCc1cc(/C=C2\C(=O)NC(=O)N(C)C2=O)cc(OC)c1O [Compound I-16, 2,4,6(1H,3H,5H)-Pyrimidinetrione, 5-[[4-hydroxy-3-methoxy-5-(2-propen-1-yl)phenyl]methylene]-1-methyl-]",A (A represents less than 20% of increased proliferation of hFDPCs)
4,"C=CCc1cc(C=C2C(=O)NC(=S)NC2=O)cc(OC)c1O [Compound I-9, 4,6(1H,5H)-Pyrimidinedione, dihydro-5-[[4-hydroxy-3-methoxy-5-(2-propen-1-yl)phenyl]methylene]-2-thioxo-]",B (B represents 20-40%)
5,"CCOCCc1nnc(NC(=O)c2cc(-c3ccccc3)nc3ccccc23)s1 [III-4, 4-Quinolinecarboxamide, N-[5-(2-ethoxyethyl)-1,3,4-thiadiazol-2-yl]-2-phenyl-]",B (B represents 20-40%)
6,"C=CCOc1ccc(/C=C2/C(=O)NC(=O)N(CC=C)C2=O)cc1OC [Compound I-7, 2,4,6(1H,3H,5H)-Pyrimidinetrione, 5-[[3-methoxy-4-(2-propen-1-yloxy)phenyl]methylene]-1-(2-propen-1-yl)-]",A (A represents less than 20% of increased proliferation of hFDPCs)
7,"COc1cc([N+](=O)[O-])cc(/C=C2\C(=O)NC(=O)N(C)C2=O)c1O [Compound I-15, 2,4,6(1H,3H,5H)-Pyrimidinetrione, 5-[(2-hydroxy-3-methoxy-5-nitrophenyl)methylene]-1-methyl-]",B (B represents 20-40%)
8,"COc1ccc(/C=C2\C(=O)NC(=O)N(C)C2=O)c(OC)c1 [Compound I-11, 2,4,6(1H,3H,5H)-Pyrimidinetrione, 5-[(2,4-dimethoxyphenyl)methylene]-1-methyl-, (5E)-]",A (A represents less than 20% of increased proliferation of hFDPCs)
9,"C=CCc1cc(/C=C2\C(=O)NC(=O)N(c3ccc(C)c(C)c3)C2=O)cc(OC)c1O [Compound I-4, 2,4,6(1H,3H,5H)-Pyrimidinetrione, 1-(3,4-dimethylphenyl)-5-[[4-hydroxy-3-methoxy-5-(2-propen-1-yl)phenyl]methylene]]",A (A represents less than 20% of increased proliferation of hFDPCs)
10,"COc1ccc(CC(=O)Nc2sc3c(c2C(=O)Nc2cccc([N+](=O)[O-])c2)CCC(C)C3)cc1 (stereo not shown) [VII-22, Benzo[b]thiophene-3-carboxamide, 4,5,6,7-tetrahydro-2-[[2-(4-methoxyphenyl)acetyl]amino]-6-methyl-N-(3-nitrophenyl)-]",A (A represents less than 20% of increased proliferation of hFDPCs)
11,"C=CCc1cc(C=C2C(=O)NC(=S)NC2=O)cc(OCC)c1O [Compound I-8, 4,6(1H,5H)-Pyrimidinedione, 5-[[3-ethoxy-4-hydroxy-5-(2-propen-1-yl)phenyl]methylene]dihydro-2-thioxo-]",B (B represents 20-40%)
12,"O=C1CNCc2[nH]c3ccccc3c2N1c1ccccc1 [VII-10, 1,4-Diazepino[6,5-b] indol-2(1H)-one, 3,4,5,6-tetrahydro-1-phenyl-]",B (B represents 20-40%)
13,"C=CCc1cc(/C=C2\C(=O)NC(=O)N(c3cc(C)cc(C)c3)C2=O)cc(OCC)c1O [Compound I-2, 2,4,6(1H,3H,5H)-Pyrimidinetrione, 1-(3,5-dimethylphenyl)-5-[[3-ethoxy-4-hydroxy-5-(2-propen-1-yl)phenyl]methylene]-]",B (B represents 20-40%)
14,"C=CCc1cc(/C=C2\C(=O)NC(=O)N(c3cc(C)cc(C)c3)C2=O)cc(OC)c1O [Compound I-3, 2,4,6(1H,3H,5H)-Pyrimidinetrione, 1-(3,5-dimethylphenyl)-5-[[4-hydroxy-3-methoxy-5-(2-propen-1-yl)phenyl]methylene]-]",A (A represents less than 20% of increased proliferation of hFDPCs)
15,"C=CCc1cc(/C=C2\C(=O)NC(=S)N(c3ccc(OC)cc3)C2=O)cc(OC)c1O [Compound I-17, 4,6(1H,5H)-Pyrimidinedione, dihydro-5-[[4-hydroxy-3-methoxy-5-(2-propen-1-yl)phenyl]methylene]-1-(4-methoxyphenyl)-2-thioxo-]",C (C represents larger than 40% of increased proliferation of hFDPCs)
16,"CN1C(=O)NC(=O)/C(=C\c2cccc(OCC(=O)O)c2)C1=O [Compound I-14, Acetic acid, 2-[3-[(tetrahydro-1-methyl-2,4,6-trioxo-5(2H)-pyrimidinylidene)methyl]phenoxy]-]",A (A represents less than 20% of increased proliferation of hFDPCs)
17,"C=CCc1cc(/C=C2\C(=O)NC(=S)N(C)C2=O)cc(OC)c1OCC [Compound I-10, 4,6(1H,5H)-Pyrimidinedione, 5-[[4-ethoxy-3-methoxy-5-(2-propen-1-yl)phenyl]methylene]dihydro-1-methyl-2-thioxo-]",A (A represents less than 20% of increased proliferation of hFDPCs)
18,"CCCCN1CCc2cc(/C=C3\C(=O)NC(=O)N(C)C3=O)ccc21 [Compound I-12, 2,4,6(1H,3H,5H)-Pyrimidinetrione, 5-[(1-butyl-2,3-dihydro-1H-indol-5-yl)methylene]-1-methyl-]",B (B represents 20-40%)
19,"Cc1cccc(Cn2cnc(NC(=O)c3cc(-c4cccnc4)nc4ccc(C)cc34)n2)c1 [III-2, 4-Quinolinecarboxamide, 6-methyl-N-[1-[(3-methylphenyl)methyl]-1H-1,2,4-triazol-3-yl]-2-(3-pyridinyl)-]",A (A represents less than 20% of increased proliferation of hFDPCs)
20,"CC(C)(C)Nc1nnc(SCc2cc(=O)oc3cc(O)ccc23)s1 [IV-1, 2H-1-Benzopyran-2-one, 4-[[[5-[(1,1-dimethylethyl)amino]-1,3,4-thiadiazol-2-yl]thio]methyl]-7-hydroxy-]",B (B represents 20-40%)
21,"CCC(C)Cc1c(C)sc2[nH]c(SCc3cc(=O)oc4cc(O)ccc34)nc(=O)c12 (stereo not shown) [IV-4, Thieno[2,3-d]pyrimidin-4(1H)-one, 2-[[(7-hydroxy-2-oxo-2H-1-benzopyran-4-yl)methyl]thio]-6-methyl-5-(2-methylbutyl)-]",A (A represents less than 20% of increased proliferation of hFDPCs)
22,"C=CCN1C(=O)NC(=O)/C(=C\c2ccc(OC)cc2OC)C1=O [Compound I-6, 2,4,6(1H,3H,5H)-Pyrimidinetrione, 5-[(2,4-dimethoxyphenyl)methylene]-1-(2-propen-1-yl)-]",A (A represents less than 20% of increased proliferation of hFDPCs)
23,"C=CCc1cc(/C=C2\C(=O)NC(=O)N(c3ccc(C(C)C)cc3)C2=O)cc(OC)c1O [Compound I-1, 2,4,6(1H,3H,5H)-Pyrimidinetrione, 5-[[4-hydroxy-3-methoxy-5-(2-propen-1-yl)phenyl]methylene]-1-[4-(1-methylethyl)phenyl]-]",A (A represents less than 20% of increased proliferation of hFDPCs)
24,"O=C(O)CC1SC(NN=Cc2ccc(OS(=O)(=O)c3ccc([N+](=O)[O-])cc3)cc2)=NC1=O (stereo not shown) [VI-6, 5-Thiazoleacetic acid, 4,5-dihydro-2-[2-[[4-[[(4-nitrophenyl)sulfonyl]oxy]phenyl]methylene] hydrazinyl]-4-oxo-]",A (A represents less than 20% of increased proliferation of hFDPCs)

# Test system: TK.6 lymphoblasts
# Assay: TK.6 micronucleus assay
# Type: cell-based
# Conditions: not given
# Experimental: The safety/toxicology profiles of a compound or salt of the present disclosure was evaluated via a series of in vitro genotoxicity assays, including the SOS-chromotest to determine bacterial genotoxicity, and the TK.6 micronucleus assay to determine chromosomal damage and forward mutations. Standard reactive oxygen species (ROS) and caspase 3/7 assay were conducted to determine general cellular toxicity. Moreover, a series of sensitization tests were conducted to predict any potential skin sensitivity. These include the direct peptide reactivity assay to evaluate haptenization, the KeratinoSens reporter assay to determine potential sensitivity via the activation of a cytoprotective pathway, and an immunological assay using human immature monocyte-derived dendritic cells to evaluate any potential immunogenicity.
# TK.6 lymphoblasts are a well-studied cell line commonly used for gene mutation analyses. They are heterozygous for the thymidine kinase gene (TK) and enable the detection of forward mutations and chromosomal damage, which manifests as micronuclei and are detectable via flow cytometry.
# TK.6 cells were dosed with the exemplary compounds or a vehicle control (0.1% v/v DMSO) and cultured with or without S9 metabolic activation for 24 hr. […] Methyl methanesulfonate, a known genotoxic, alkylating agent was used as a positive control for micronuclei detection.
# The micronucleus assay was also performed to determine if the compounds are genotoxic by evaluating the presence of micronuclei. […] I-17 elicited genotoxicity at >3.125 μg/mL.
row,SMILES,micronuclei formation / genotoxic effect in TK.6 cells
1,"COc1ccc(CCCc2nc3ccccc3[nH]2)cc1 [VII-14, 1H-Benzimidazole, 2-[3-(4-methoxyphenyl)propyl]-]",do not promote any micronuclei formation

# Same assay, conditions: 24 hr
row,SMILES,concentration eliciting genotoxicity in TK.6 micronuclei assay
1,"C=CCc1cc(/C=C2\C(=O)NC(=S)N(c3ccc(OC)cc3)C2=O)cc(OC)c1O [Compound I-17, 4,6(1H,5H)-Pyrimidinedione, dihydro-5-[[4-hydroxy-3-methoxy-5-(2-propen-1-yl)phenyl]methylene]-1-(4-methoxyphenyl)-2-thioxo-]",> 3125 ng/mL

# Test system: HepG2 cells
# Assay: Caspase 3/7 activity in HepG2 cells
# Type: cell-based
# Conditions: HepG2, >2-log concentration range
# Experimental: (§1) Cells were treated with either the exemplary compounds or vehicle control containing correspondingly % v/v-matched amounts of DMSO spanning a >2-log concentration range. Data represents mean±s.d. and representative of at least 2 experimental replicates.
# as §1, with “HepG2 cells are an immortalized liver cell line commonly used to study apoptosis induced by small molecules. Cells” for “Cells”
row,SMILES,normalized caspase 3/7 activity
1,"C=CCc1cc(/C=C2\C(=O)NC(=S)N(c3ccc(OC)cc3)C2=O)cc(OC)c1O [Compound I-17, 4,6(1H,5H)-Pyrimidinedione, dihydro-5-[[4-hydroxy-3-methoxy-5-(2-propen-1-yl)phenyl]methylene]-1-(4-methoxyphenyl)-2-thioxo-]",significant caspase-3/7 activation at the highest concentration
2,"COc1ccc(CCCc2nc3ccccc3[nH]2)cc1 [VII-14, 1H-Benzimidazole, 2-[3-(4-methoxyphenyl)propyl]-]",did not exhibit any caspase activation

# Reference: US12527794B2, “Compositions, formulations, and methods for hair treatment” (Oddity Labs, LLC, priority 2021, dated 2026)
